Experimental data from publication PMC10674866, “Electrosprayed Nanoparticles Containing Mangiferin-Rich Extract from Mango Leaves for Cosmeceutical Application” (Nanomaterials, 2023).
In brackets after ≈: the same amount, converted by molar mass.

Tests used:
Type in all cases: biochemical
tyrosinase from mushroom = target: T1, tyrosinase from mushroom; assay: absorbance at […] nm; conditions: L-tyrosine substrate; 20 mM phosphate pH 6.8; room temperature
T1 construct: gene PPO1

[1] = target: T2, collagenase from Histidium histolyticum; assay: fluorescence assay of collagen hydrolysis ([…],4-DHPAA / periodate); conditions: collagen substrate; borate buffer pH 7.5; 5 mM CaCl2; 37 °C
T2 construct: gene colG

[2] = target: T3, hyaluronidase from bovine (Bos taurus, UniProt Q2YDK3); assay: turbidity with acidic albumin, absorbance at […] nm; conditions: read-out: % inhibition at 40.0 μg/mL
T3 construct: gene SPAM1; commercial native enzyme (Sigma-Aldrich)
T3 sequence (Q2YDK3 36-553): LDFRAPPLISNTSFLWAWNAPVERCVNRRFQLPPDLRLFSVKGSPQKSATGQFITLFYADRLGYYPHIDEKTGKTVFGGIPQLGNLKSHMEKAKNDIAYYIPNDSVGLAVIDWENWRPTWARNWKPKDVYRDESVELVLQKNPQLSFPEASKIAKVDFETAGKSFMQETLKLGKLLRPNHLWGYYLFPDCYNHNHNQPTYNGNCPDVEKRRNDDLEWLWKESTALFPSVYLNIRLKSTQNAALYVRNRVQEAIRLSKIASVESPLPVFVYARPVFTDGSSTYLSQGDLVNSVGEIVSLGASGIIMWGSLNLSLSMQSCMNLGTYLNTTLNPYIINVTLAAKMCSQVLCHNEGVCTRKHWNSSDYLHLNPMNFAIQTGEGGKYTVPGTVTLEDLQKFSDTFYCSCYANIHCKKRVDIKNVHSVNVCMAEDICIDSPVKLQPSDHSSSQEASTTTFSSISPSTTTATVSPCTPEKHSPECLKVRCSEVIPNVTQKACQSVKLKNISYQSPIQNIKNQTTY

O=C1O[C@H]([C@@H](O)CO)C(O)=C1O [ascorbic acid] gave an IC50 (tyrosinase from mushroom) of 69.8 ± 0.018 µg/mL (≈ 396 µM) and an IC50 [1] of 107.84 ± 0.001 µg/mL (≈ 612 µM).
Compound O=c1c2cc(O)c(O)cc2oc2cc(O)c([C@@H]3O[C@H](CO)[C@@H](O)[C@H](O)[C@H]3O)c(O)c12 [mangiferin] has an inhibition at 40 µg/mL [2] of 1.72 ± 1.13% and an IC50 [1] of 30.06 ± 0.001 µg/mL (≈ 71.2 µM).
